In PMC8003278, “Structure-Based Virtual Screening and De Novo Design of PIM1 Inhibitors with Anticancer Activity from Natural Products” (Pharmaceuticals, 2021):

How the values were obtained:
PIM1 kinase = biological target: T1, PIM1 kinase (Homo sapiens, UniProt P11309); experiment: radiometric ([γ-33P]-ATP) kinase assay, PIM1 enzyme inhibition (Reaction Biology Corp.); type: biochemical
T1 construct: purchased Reaction Biology Corp. (Malvern, PA, USA), contract assay service
Text: Among a total of 42,613 natural products in the chemical database, 31,874 molecules that satisfied the physicochemical property criteria for a potential drug candidate were screened through docking simulations in the ATP-binding site of PIM1 kinase, as illustrated in Figure 1. Using the modified binding free energy function involving an accurate molecular dehydration term, 100 top-scoring compounds were selected as the virtual hits, all of which were commercially available from a compound vendor (InterBioScreen Ltd., https://www.ibscreen.com, accessed on 15 October 2019). All these putative inhibitors were tested for the presence of the inhibitory activity against PIM1 kinase with in vitro radiometric ([γ-^33P]-ATP) kinase assays (Reaction Biology Corp., Malvern, PA, USA).
The inhibitory activities of all compounds with respect to PIM1 were measured by Reaction Biology Corp. (Malvern, PA, USA) using radiometric kinase assays ([γ-^33P]-ATP). Briefly, the enzymatic reaction mixtures contained an artificial substrate peptide, poly-Glu-Tyr (4:1), in freshly prepared base reaction buffer (20 mM hydroxyethyl piperazine ethane sulfonic acid (HEPES) of pH 7.5, 10 mM MgCl2, 1 mM ethylene glycol tetraacetic acid (EGTA), 0.02% Brij-35, 0.02 mg/mL bovine serum albumin (BSA), 0.1 mM Na3VO4, 2 mM dithiothreitol (DTT), and 1% DMSO). PIM1 kinase was delivered into the substrate solution and gently mixed. Each inhibitor in 100% DMSO in a serial dilution was then delivered to the reaction mixture using the acoustic dispensing system (Echo550; nanoliter range). To initiate the enzymatic reaction, ^33P-ATP with a specific activity of 10 μCi/μL was added into the reaction mixture, which was further incubated for 2 h at room temperature. Radioactivity was then monitored by the filter-binding method after the reactions were spotted onto P81 ion exchange paper, and the filters were washed extensively in 0.75% phosphoric acid. Kinase activity data were expressed as the percent remaining kinase activity in test samples compared to vehicle (dimethyl sulfoxide) reactions. IC50 values and curve fits were calculated with Prism Software (GraphPad Software) at 10 different concentrations in duplicate.

[1] = system: T47D human breast cancer cell lines; experiment: MTT cell proliferation inhibition assay in T47D cells; type: cell-based; settings: antiproliferative activity in T47D cell lines, mean ± standard deviation of the two experiments
Experimental: To assess the anticancer activities of these new PIM1 inhibitors, we carried out cell-based assays for 5, 8, 14, 15, and 16 using T47D human cancer cell lines, which represented breast cancer caused by PIM1 [48]. The natural product wortmannin served as a positive control in this cellular study. Cell viabilities were measured at varying inhibitor concentrations with a 3-(4,5-dimethylthiazol-2-yl)-2,5-diphenyltetrazolium bromide (MTT) assay. […]. However, it should be noted that the inhibitory activities of 14–16 decrease from the nanomolar level in enzyme inhibition assays (Table 2) to the micromolar level in cell proliferation assays. The poor cell permeability can be invoked to explain the reduced biochemical potency in cell-based assays. In order for the new PIM1 inhibitors to become a good lead compound for the development of anticancer medicines, improving cellular permeability using further structural modifications is required.
The T47D human breast cancer cell lines were purchased from Korean Cell Line Bank (KCLB, Seoul, Korea). T47D cells were then cultured in Roswell Park Memorial Institute 1640 (RPMI-1640) medium with 10% fetal bovine serum (FBS) and 1% penicillin/streptomycin, and maintained at 37 °C in a CO2 incubator with a controlled humidified atmosphere comprising 95% air and 5% CO2. All the cell culture reagents were purchased from Thermo Fisher Scientific.
Cell viability was measured with 3-(4,5-dimethylthiazol-2-yl)-2,5-diphenyltetrazolium bromide (MTT) assay using the natural product wortmannin as a positive control. At first, T47D cells were plated at a density of 3–5 × 10^3 cells/well in 96-well plates for 24 h and then treated with either DMSO as a control or with varying concentrations of the PIM1 inhibitors (5, 8, 14, 15, and 16). The final concentration of DMSO in the medium was <0.1% (v/v). After the incubation of cells for 48 h, 20 μL of MTT solution (5 mg/mL) was added to each well for 4 h at 37 °C. The formazan crystals formed during the mixing were dissolved in DMSO (100 μL/well) by shaking for 5 min. Duplicate wells were used for each analysis although triplicate measurements would be more reliable. After 72 h, the absorbance of each solution was measured with a microplate reader at 540 nm to calculate the antiproliferative activity of the PIM1 inhibitors. Finally, the IC50 values were measured from the dose–response curves.

[2] = PIM1 kinase, derivatives of 2, mean ± standard deviation of the two experiments
[3] = PIM1, natural-product inhibitors, mean ± standard deviation of the two experiments

T1 sequence (P11309 whole entry): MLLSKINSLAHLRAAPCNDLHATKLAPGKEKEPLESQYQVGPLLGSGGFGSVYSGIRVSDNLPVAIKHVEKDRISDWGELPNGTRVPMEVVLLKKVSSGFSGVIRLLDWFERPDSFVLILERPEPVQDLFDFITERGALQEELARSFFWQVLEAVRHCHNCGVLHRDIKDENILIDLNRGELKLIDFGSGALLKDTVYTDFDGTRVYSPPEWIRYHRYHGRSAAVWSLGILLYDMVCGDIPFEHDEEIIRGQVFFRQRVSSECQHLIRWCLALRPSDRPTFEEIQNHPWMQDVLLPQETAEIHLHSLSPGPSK

IC50 (PIM1 kinase; [2]) | IC50 [1] | SMILES | further results
1450 ± 100 nM |  | O=C1/C(=C/c2cccc(Cl)c2)Oc2cc(O)cc(O)c21 [Compound 7, (Z)-2-(3-Chlorobenzylidene)-4,6-dihydroxybenzofuran-3(2H)-one] | 
150 ± 10 nM |  | COc1cc(/C=C2\Oc3cc(O)cc(O)c3C2=O)ccc1Cl [Compound 9, (Z)-2-(4-Chloro-3-methoxybenzylidene)-4,6-dihydroxybenzofuran-3(2H)-one] | 
6.7 ± 3 nM | 4500 ± 800 nM | O=C1/C(=C/c2c[nH]c3nc(Cl)ncc23)Oc2cc(O)cc(O)c21 [Compound 16, (Z)-2-((2-Chloro-7H-pyrrolo[2,3-d]pyrimidin-5-yl)methylene)-4,6-dihydroxybenzofuran-3(2H)-one] | IC50 (PIM1 kinase; PIM1): 7 nM
 |  | O=c1c(-c2ccc(OC3OC(CO)C(O)C(O)C3O)cc2)coc2cc(O)cc(O)c12 (stereo not shown) [Compound 4] | IC50 (PIM1 kinase; [3]): 20200 ± 2000 nM
 |  | COc1c(O)c(O)c2oc(-c3ccccc3)cc(=O)c2c1OC [Compound 1] | IC50 (PIM1 kinase; [3]): 580 ± 200 nM
8.8 ± 2 nM | 3200 ± 600 nM | COc1cc(O)c2c(c1)O/C(=C\c1c[nH]c3ncc(Cl)cc13)C2=O [Compound 15, (Z)-2-((5-Chloro-1H-pyrrolo[2,3-b]pyridin-3-yl)methylene)-4-hydroxy-6-methoxybenzofuran-3(2H)-one] | 
680 ± 80 nM |  | O=C1/C(=C/c2ccc(Cl)c(Cl)c2)Oc2cc(O)cc(O)c21 [Compound 10, (Z)-2-(3,4-Dichlorobenzylidene)-4,6-dihydroxybenzofuran-3(2H)-one] | 
260 ± 50 nM | 15100 ± 1000 nM | COc1cccc(/C=C2\Oc3cc(O)ccc3C2=O)c1 [Compound 5, (Z)-6-Hydroxy-2-(3-methoxybenzylidene)benzofuran-3(2H)-one] | 
 |  | O=C1c2c(O)cc(O)cc2O[C@H](c2ccc(O)c(O)c2)[C@H]1O [Compound 3] | IC50 (PIM1 kinase; [3]): 4000 ± 600 nM
1190 ± 70 nM |  | COc1ccc(/C=C2\Oc3cc(O)ccc3C2=O)cc1 [Compound 2] | IC50 (PIM1 kinase; [3]): 1200 ± 100 nM
5230 ± 400 nM |  | COc1ccc(/C=C2\Oc3cc(O)ccc3C2=O)cn1 [Compound 11, (Z)-6-Hydroxy-2-((6-methoxypyridin-3-yl)methylene)benzofuran-3(2H)-one] | decrease of inhibitory activity by a factor (PIM1 kinase; PIM1, relative to 5 (phenyl ring replaced with pyridine)): 20
1730 ± 300 nM |  | O=C1/C(=C/c2cc3ccccc3[nH]c2=O)Oc2cc(O)cc(O)c21 [Compound 13, (Z)-3-((4,6-Dihydroxy-3-oxobenzofuran-2(3H)-ylidene)methyl)quinolin-2(1H)-one] | 
200 ± 30 nM | 11200 ± 2000 nM | COc1cc(/C=C2\Oc3cc(O)ccc3C2=O)ccc1Cl [Compound 8, (Z)-2-(4-Chloro-3-methoxybenzylidene)-6-hydroxybenzofuran-3(2H)-one] | 
5860 ± 1000 nM |  | O=C1/C(=C/c2ccc[nH]c2=O)Oc2cc(O)cc(O)c21 [Compound 12, (Z)-3-((4,6-Dihydroxy-3-oxobenzofuran-2(3H)-ylidene)methyl)pyridin-2(1H)-one] | 
18 ± 2 nM | 5900 ± 1000 nM | COc1cc(O)c2c(c1)O/C(=C\c1cc(-c3ccncc3)[nH]n1)C2=O [Compound 14] | 
310 ± 20 nM |  | COc1cccc(/C=C2\Oc3cc(O)cc(O)c3C2=O)c1 [Compound 6, (Z)-4,6-Dihydroxy-2-(3-methoxybenzylidene)benzofuran-3(2H)-one] | 

SMILES | IC50 (PIM1 kinase; [2]) | IC50 [1] | further results
COC[C@H]1OC(=O)c2coc3c2[C@@]1(C)C1=C(C3=O)[C@@H]2CCC(=O)[C@@]2(C)C[C@H]1OC(C)=O [wortmannin, reference compound] |  | 3400 ± 200 nM | 
